From PubChem BioAssay AID1394 (PCMD, 2008)
The source made the active and inactive calls.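 The calls were made as follows: active = fitted EC50 above 0 with maximum enhancement above 35%; inactive = the rest.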

Biological target: E3 ubiquitin-protein ligase Mdm2 (Homo sapiens) (UniProt Q00987)
Test: 384-well cell-based luminescence, MDM2-luciferase reporter signal enhancement, concentration series, MDM2 ligase inhibitor project (AID 1394)
Details: cells, MDM2-luciferase autoubiquitination reporter, 2 h; for maximum enhancement: hits give high values

Chain of E3 ubiquitin-protein ligase Mdm2 (Homo sapiens) (Q00987 whole entry, looked up): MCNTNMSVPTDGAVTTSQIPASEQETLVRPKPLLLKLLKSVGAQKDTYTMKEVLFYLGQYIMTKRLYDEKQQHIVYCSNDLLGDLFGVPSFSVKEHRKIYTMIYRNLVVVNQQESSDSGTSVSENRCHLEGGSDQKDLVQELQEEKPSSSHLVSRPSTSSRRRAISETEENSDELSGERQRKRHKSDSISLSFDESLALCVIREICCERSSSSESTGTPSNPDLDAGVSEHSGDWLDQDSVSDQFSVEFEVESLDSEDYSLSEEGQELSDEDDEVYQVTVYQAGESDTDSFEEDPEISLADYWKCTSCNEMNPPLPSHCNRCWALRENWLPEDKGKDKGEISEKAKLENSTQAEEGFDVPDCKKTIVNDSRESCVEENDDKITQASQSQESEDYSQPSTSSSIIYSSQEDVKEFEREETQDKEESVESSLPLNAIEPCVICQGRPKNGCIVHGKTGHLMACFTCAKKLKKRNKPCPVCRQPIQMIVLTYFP

| Compound | maximum enhancement | EC50 |
| --- | --- | --- |
| C/C(=N\NC(N)=S)c1cccnc1 | inactive |  |
| Cc1[nH]c2ccc(Cl)cc2c(=O)c1CN1CCCC1 | inactive |  |
| O=C1CC(c2cccc(Cl)c2)CC(O)=C1C=NC1CCCC1 (centres undefined) |  | inactive |
| CC1=NN(c2ccc(C)cc2)C(=O)/C1=C\C=C\c1ccccc1 | inactive |  |
| CCCCC(=O)/C=C/n1c(=S)oc2ccccc21 | inactive |  |
| O=C(CN1CCCCC1)NC(=O)NCc1ccccc1 | inactive |  |
| Cn1c(=O)cc(OCC(=O)NCc2cccs2)c2ccccc21 | inactive |  |
| COc1ccc(NC(=O)/C(C#N)=C\c2ccc(OCc3ccc(C(=O)O)cc3)c(OC)c2)cc1 | inactive |  |
| CCn1cc(C(=O)NCc2ccccc2OC)c(=O)c2cc(S(=O)(=O)N(C)C)ccc21 | inactive |  |
| O=C(O)CCc1ccc(-c2ccc(Br)cc2)n1CC(=O)O | inactive |  |
| Cn1c(=NC(=O)c2ccc3c(c2)OCCO3)sc2cc(S(C)(=O)=O)ccc21 | inactive |  |
| COc1cc(/C=C2/C(=N)N3OC(C)=CC3=NC2=O)ccc1OC(=O)c1ccco1 | inactive |  |
| CC(=O)Cc1nsc(Nc2ccc(C)cc2)n1 | inactive |  |
| CCN(CC)Cc1cc(C(=O)O)c(C)o1 | inactive |  |
| COc1ccc(OC(C)C(=O)Nc2ccccc2C(F)(F)F)cc1 (centres undefined) | inactive |  |
| Cc1ccc(Nc2nnc(SCC3CCCCO3)s2)cc1 (centres undefined) | inactive |  |
| N#Cc1nc(Cc2ccccc2)oc1NCCN1CCOCC1 | inactive |  |

| Compound | maximum enhancement | EC50 |
| --- | --- | --- |
| CCCCS(=O)(=O)/C=C\C=C/S(=O)(=O)CCCC | inactive |  |
| Cc1ccc(N2C(=O)NC(=O)/C(=C\C=C\c3ccco3)C2=O)cc1C | inactive |  |
| Cc1cc(C)cc(OCC(=O)NNC(=O)CCN2C(=O)c3ccccc3C2=O)c1 | inactive |  |
| Cc1ccc(/C=C2/NC(=O)N(Cc3ccc(Br)cc3)C2=O)o1 | inactive |  |
| CCN(C(=O)CSc1nc2ccccc2c(=O)n1-c1cccc(C)c1)C1CCS(=O)(=O)C1 (centres undefined) | inactive |  |
| COc1ccc(N2C(=S)N=C(Nc3ccccc3)C23CCCCC3)cc1 | inactive |  |
| COc1ccccc1-c1nnc(Nc2nc3c(OC)cccc3s2)o1 | inactive |  |
| O=C(CNCc1ccc(Cl)cc1)Nc1cccc(C(=O)O)c1 | inactive |  |
| Cc1cc(=O)n2[nH]c(N3C(=O)CCC3=O)nc2n1 | inactive |  |
| O=S1(=O)C=C(Sc2nc3ccccc3s2)c2ccccc21 | inactive |  |
| O=C(COc1ccccc1)Nc1ncccn1 | inactive |  |
| C=C1CCN(C(C(=O)OC)C(C)C)S(=O)(=O)c2ccccc21 (centres undefined) | inactive |  |
| O=C(c1cn(-c2ccccc2)nc1-c1cccs1)N1CCOCC1 | inactive |  |
| Fc1cccc(Cl)c1/C=N/n1c(-c2cccnc2)n[nH]c1=S | inactive |  |
| CCc1cc2c(=O)c(-c3nc4ccccc4n3C)c(CCCC(=O)O)oc2cc1OC(=O)C(C)(C)C | inactive |  |
| COC(Cn1cc(C)c(=O)[nH]c1=O)OC | inactive |  |
| N=C1C(c2nc3ccccc3[nH]2)=C(O)CN1c1ccccc1 | inactive |  |
